Molecular target: E3 ubiquitin-protein ligase Mdm2 (Homo sapiens, UniProt Q00987)
Assay: HTRF2 Assay: As the potencies of the HDM2 inhibitors increased, an improved HTRF assay (HTRF2 assay) was developed. All assay conditions remained the same as described above, with the exception of the following changes in reagent concentrations: 0.2 nM GST-hMDM2 (1-188), 0.5 nM biotinylated-p53 (1-83), 0.18 nM SA-XLent, and 100 mM KF.

Chain of E3 ubiquitin-protein ligase Mdm2 (Q00987 whole entry): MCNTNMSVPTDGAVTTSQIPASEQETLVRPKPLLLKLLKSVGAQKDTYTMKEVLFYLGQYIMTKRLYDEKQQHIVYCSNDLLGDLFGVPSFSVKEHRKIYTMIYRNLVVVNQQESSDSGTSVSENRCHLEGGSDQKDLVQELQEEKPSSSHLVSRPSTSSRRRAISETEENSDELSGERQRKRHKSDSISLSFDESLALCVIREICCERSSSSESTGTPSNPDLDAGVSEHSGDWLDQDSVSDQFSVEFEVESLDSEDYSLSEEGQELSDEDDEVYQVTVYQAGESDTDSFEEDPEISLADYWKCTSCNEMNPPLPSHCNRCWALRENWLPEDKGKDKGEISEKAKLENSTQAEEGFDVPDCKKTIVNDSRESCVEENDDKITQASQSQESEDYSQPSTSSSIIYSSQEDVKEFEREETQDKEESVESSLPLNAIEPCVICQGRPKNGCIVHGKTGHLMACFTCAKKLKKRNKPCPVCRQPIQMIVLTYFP

Structure (SMILES) | IC50 [nM]
CCC[C@H](C(=O)N1CC(C(=O)O)C1)N1C(=O)[C@H](Cc2ccc(F)cc2)O[C@@H](c2ccc(Cl)cc2)[C@H]1c1ccc(Cl)cc1 (mixture of isomers) | 524
CCC[C@H](C(=O)O)N1C(=O)CO[C@@H](c2ccc(Cl)cc2)[C@H]1c1cc2ccccc2[nH]1 (mixture of isomers) | 1290
O=C1[C@H](CCCO)O[C@@H](c2cccc(Cl)c2)[C@@H](c2ccc(Cl)cc2)N1CC1CC1 (mixture of isomers) | 7230
